Assay results from patent US20230265151A1, “GIP/GLP1 CO-AGONIST COMPOUNDS” (priority 2020, published 2023).
Like-named read-outs stand apart in the source and are kept apart here.

How the values were obtained:
hGLP-1R = hGLP-1R (Homo sapiens, UniProt P43220); assay: Functional cAMP formation (HTRF) in HEK-293 clonal cells expressing hGLP-1R, 0.1% bovine casein, without or with 1.0% human serum albumin; assay type: cell-based; design: expressed in transfected cells; conditions: for Emax: percent of maximal response to GLP-1(7-36)NH2; for EC50: geometric mean
Summary of the method: (§1)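 Cells were stimulated with peptide for 30 min at 37° C, then lysed in buffer carrying cAMP-d2 and anti-cAMP Eu3+-cryptate for a competitive HTRF read after at least 60 min at room temperature. The 665/620 nm ratio was converted to nM cAMP against a standard curve.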

hGIPR = molecular target: T1, hGIPR (Homo sapiens, UniProt P48546); assay: Functional cAMP formation (HTRF) in HEK-293 clonal cells expressing hGIPR, 0.1% bovine casein, without or with 1.0% human serum albumin; assay type: cell-based; conditions: for Emax: percent of maximal response to GIP(1-42)NH2
T1 construct: expressed in transfected cells
T1 sequence (P48546 22-466): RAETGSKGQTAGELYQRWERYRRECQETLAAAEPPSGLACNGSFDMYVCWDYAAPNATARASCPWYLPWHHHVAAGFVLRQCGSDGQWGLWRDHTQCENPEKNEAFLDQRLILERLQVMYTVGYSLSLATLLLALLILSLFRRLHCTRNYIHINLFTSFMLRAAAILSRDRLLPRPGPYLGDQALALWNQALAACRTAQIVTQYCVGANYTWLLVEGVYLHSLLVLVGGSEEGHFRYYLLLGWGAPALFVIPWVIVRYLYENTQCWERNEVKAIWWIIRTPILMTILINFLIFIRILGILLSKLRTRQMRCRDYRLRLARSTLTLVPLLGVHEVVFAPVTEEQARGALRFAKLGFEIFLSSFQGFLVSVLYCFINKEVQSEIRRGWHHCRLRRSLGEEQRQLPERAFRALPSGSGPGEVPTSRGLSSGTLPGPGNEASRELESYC
Summary of the method: as §1

[1] = molecular target: T2, human GLP-1 receptor (hGLP-1R) (Homo sapiens, UniProt P43220); assay: [125I]-GLP-1 binding, SPA with membranes of HEK293 cells expressing hGLP-1R
T2 construct: expressed in transfected cells; crude membranes

hGCGR = molecular target: T3, hGCGR (Homo sapiens, UniProt P47871); assay: Functional cAMP formation (HTRF) in HEK-293 clonal cells expressing hGCGR, 0.1% bovine casein, without or with 1.0% human serum albumin; assay type: cell-based
T3 construct: expressed in transfected cells
Summary of the method: as §1

[2] = HEK293, read-out: hGLP-1R Emax, % ± SEM, cAMP, 37° C., 0.1% bovine casein and 1.0% human serum albumin
[3] = HEK293, read-out: hGLP-1R Emax, % ± SEM, cAMP, 37° C., 0.1% bovine casein, arithmetic mean
[4] = hGLP-1R EC50, nM (SEM, n), cAMP, 37° C., 0.1% bovine casein (no human serum albumin)
[5] = HEK293, read-out: hGIPR Emax, % ± SEM, cAMP, 37° C., 0.1% bovine casein and 1.0% human serum albumin
[6] = hGIPR EC50, nM (SEM, n), cAMP, 37° C., 0.1% bovine casein (no human serum albumin), geometric mean
[7] = hGCGR EC50, nM (SEM, n), cAMP, 37° C., 0.1% bovine casein (no human serum albumin), geometric mean
[8] = hGCGR EC50, nM (SEM, n), cAMP, 37° C., 0.1% bovine casein and 1.0% human serum albumin, geometric mean (SEM, n)

T3 sequence (P47871 26-477): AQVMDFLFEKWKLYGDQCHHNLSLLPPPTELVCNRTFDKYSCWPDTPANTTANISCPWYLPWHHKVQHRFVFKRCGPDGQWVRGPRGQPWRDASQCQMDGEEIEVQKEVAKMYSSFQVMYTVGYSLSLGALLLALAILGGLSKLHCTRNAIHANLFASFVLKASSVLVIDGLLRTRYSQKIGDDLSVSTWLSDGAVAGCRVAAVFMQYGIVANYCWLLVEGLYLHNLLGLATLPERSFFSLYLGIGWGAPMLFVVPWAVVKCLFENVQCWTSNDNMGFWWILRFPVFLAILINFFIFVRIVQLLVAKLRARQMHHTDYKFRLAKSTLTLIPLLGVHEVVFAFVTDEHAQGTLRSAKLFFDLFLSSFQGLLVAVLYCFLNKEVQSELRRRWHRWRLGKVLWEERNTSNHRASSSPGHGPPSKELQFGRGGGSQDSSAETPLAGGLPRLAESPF
T2 sequence (P43220 24-463): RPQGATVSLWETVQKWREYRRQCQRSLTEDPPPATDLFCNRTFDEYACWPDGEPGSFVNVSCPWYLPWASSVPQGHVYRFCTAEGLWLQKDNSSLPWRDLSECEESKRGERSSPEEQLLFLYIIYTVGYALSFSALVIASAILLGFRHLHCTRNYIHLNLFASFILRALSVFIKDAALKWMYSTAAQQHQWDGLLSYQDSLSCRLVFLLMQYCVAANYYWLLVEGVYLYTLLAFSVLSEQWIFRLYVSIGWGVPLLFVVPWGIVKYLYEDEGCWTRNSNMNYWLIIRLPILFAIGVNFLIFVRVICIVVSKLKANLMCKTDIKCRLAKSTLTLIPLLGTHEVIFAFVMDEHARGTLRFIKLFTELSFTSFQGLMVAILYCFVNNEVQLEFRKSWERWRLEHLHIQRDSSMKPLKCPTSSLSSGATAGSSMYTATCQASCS
Chain of hGLP-1R (P43220 24-463): as above

| Compound | Emax (hGLP-1R; [2]) | Emax (hGLP-1R; [3]) | EC50 (hGLP-1R; [4]) | Emax (hGIPR; [5]) | EC50 (hGIPR; [6]) | Ki [1] | EC50 (hGCGR; [7]) | EC50 (hGCGR; [8]) | EC50 (hGLP-1R; 0.1% bovine casein and 1.0% human serum albumin, 37° C., read-out: hGLP-1R EC50, nM (SEM, n)) | EC50 (hGLP-1R; cAMP, incubated at 37° C., 0.1% bovine casein (no human serum albumin), read-out: hGLP-1R EC50, nM (SEM, n)) | EC50 (hGIPR; 0.1% bovine casein and 1.0% human serum albumin, 37° C., geometric mean, read-out: hGIPR EC50, nM (SEM, n)) | Emax (hGIPR; HEK293, 0.1% bovine casein and 1.0% human serum albumin, 37° C., read-out: hGIPR Emax, % ± SEM) | EC50 (hGIPR; cAMP, incubated at 37° C., 0.1% bovine casein (no human serum albumin), geometric mean, read-out: hGIPR EC50, nM (SEM, n)) | Ki ([1]; human GLP-1R, geometric mean (SEM, n), read-out: Binding Affinity Ki, nM (SEM, n) hGLP-1R) | EC50 (hGCGR; 0.1% bovine casein and 1.0% human serum albumin, 37° C., geometric mean, read-out: hGCGR EC50, nM (SEM, n)) | EC50 (hGCGR; cAMP, incubated at 37° C., 0.1% bovine casein (no human serum albumin), geometric mean, read-out: hGCGR EC50, nM (SEM, n)) | EC50 (hGIPR; hGIPR EC50, nM (SEM, n), cAMP, 37° C., 0.1% bovine casein and 1.0% human serum albumin, geometric mean (SEM, n)) |
| --- | --- | --- | --- | --- | --- | --- | --- | --- | --- | --- | --- | --- | --- | --- | --- | --- | --- |
| CC[C@H](C)[C@H](NC(=O)[C@H](CC(C)C)NC(=O)[C@](C)(Cc1ccc(O)cc1)NC(=O)[C@H](CCCCNC(=O)COCCOCCNC(=O)[C@H]1CC[C@H](CNC(=O)CC[C@H](NC(=O)CCCCCCCCCOc2ccc(C(=O)O)cc2)C(=O)O)CC1)NC(=O)[C@@H](NC(=O)[C@H](Cc1ccccc1)NC(=O)[C@H](CCCN)NC(=O)C(C)(C)NC(=O)[C@H](CCC(N)=O)NC(=O)[C@H](C)NC(=O)[C@H](CCC(N)=O)NC(=O)[C@H](CCCN)NC(=O)[C@H](CC(=O)O)NC(=O)[C@H](CC(C)C)NC(=O)[C@](C)(CC(C)C)NC(=O)[C@@H](NC(=O)C(C)(C)NC(=O)[C@H](Cc1ccncc1)NC(=O)[C@H](CC(=O)O)NC(=O)[C@H](CO)NC(=O)[C@@H](NC(=O)[C@](C)(Cc1ccccc1F)NC(=O)[C@@H](NC(=O)CNC(=O)[C@H](CCC(=O)O)NC(=O)C(C)(C)NC(=O)[C@@H](N)Cc1ccc(O)cc1)[C@@H](C)O)[C@@H](C)O)[C@@H](C)CC)[C@@H](C)CC)C(=O)N[C@@H](CCCCNC(=O)COCCOCCNC(=O)[C@H]1CC[C@H](CNC(=O)CC[C@H](NC(=O)CCCCCCCCCOc2ccc(C(=O)O)cc2)C(=O)O)CC1)C(=O)NCC(=O)NCC(=O)N1CCC[C@H]1C(=O)N[C@@H](CO)C(=O)N[C@@H](CO)C(=O)NCC(=O)N[C@@H](C)C(=O)N1CCC[C@H]1C(=O)N1CCC[C@H]1C(=O)N1CCC[C@H]1C(=O)N[C@@H](CO)C(N)=O [Example 473] | 114% | 118% | 0.192 nM | 92.8% | 0.0163 nM | 0.169 nM | > 9950 nM | > 9950 nM |  |  |  |  |  |  |  |  |  |
| CCCCCCCCCCCC(=O)N[C@@H](CCC(=O)NCCOCCOCC(=O)NCCOCCOCC(=O)NCCCC[C@H](NC(=O)[C@H](CCCN)NC(=O)[C@H](CC(=O)O)NC(=O)[C@H](CC(C)C)NC(=O)[C@](C)(CC(C)C)NC(=O)[C@@H](NC(=O)[C@H](CO)NC(=O)[C@H](Cc1ccncc1)NC(=O)[C@H](CC(=O)O)NC(=O)[C@H](CO)NC(=O)[C@@H](NC(=O)[C@](C)(Cc1ccccc1F)NC(=O)[C@@H](NC(=O)CNC(=O)[C@H](CCC(=O)O)NC(=O)C(C)(C)NC(=O)[C@@H](N)Cc1ccc(O)cc1)[C@@H](C)O)[C@@H](C)O)[C@@H](C)CC)C(=O)N[C@@H](C)C(=O)N[C@@H](CCC(N)=O)C(=O)NC(C)(C)C(=O)N[C@@H](CCCCNC(=O)COCCOCCNC(=O)COCCOCCNC(=O)CC[C@H](NC(=O)CCCCCCCCCCC)C(=O)O)C(=O)N[C@@H](Cc1ccccc1)C(=O)N[C@H](C(=O)N[C@H](CCC(=O)O)C(=O)N[C@@](C)(Cc1ccc(O)cc1)C(=O)N[C@@H](CC(C)C)C(=O)N[C@H](C(=O)N[C@@H](CCC(=O)O)C(=O)NCC(=O)NCC(=O)N1CCC[C@H]1C(=O)N[C@@H](CO)C(=O)N[C@@H](CO)C(=O)NCC(=O)N[C@@H](C)C(=O)N1CCC[C@H]1C(=O)N1CCC[C@H]1C(=O)N1CCC[C@H]1C(=O)N[C@@H](CO)C(N)=O)[C@@H](C)CC)[C@@H](C)CC)C(=O)O [Example 137] |  |  |  |  |  |  |  |  | 5.02 nM | 0.134 nM | 0.728 nM | 90.3 ± 0.387% | 0.0116 nM | 0.25 nM | > 9950 nM | > 9950 nM |  |
| CC[C@H](C)[C@H](NC(=O)[C@H](CC(C)C)NC(=O)[C@](C)(Cc1ccc(O)cc1)NC(=O)[C@@H](CCC(=O)O)NC(=O)[C@@H](NC(=O)[C@H](Cc1ccccc1)NC(=O)[C@H](CCC(=O)O)NC(=O)C(C)(C)NC(=O)[C@H](CCC(N)=O)NC(=O)[C@H](C)NC(=O)[C@H](CCCCNC(=O)COCCOCCNC(=O)CC[C@H](NC(=O)CCCCCCCCCOc1ccc(C(=O)O)cc1)C(=O)O)NC(=O)[C@H](CCCN)NC(=O)[C@H](CC(=O)O)NC(=O)[C@H](CC(C)C)NC(=O)[C@](C)(CC(C)C)NC(=O)[C@@H](NC(=O)C(C)(C)NC(=O)[C@H](Cc1ccncc1)NC(=O)[C@H](CC(=O)O)NC(=O)[C@H](CO)NC(=O)[C@@H](NC(=O)[C@](C)(Cc1ccccc1F)NC(=O)[C@@H](NC(=O)CNC(=O)[C@H](CCC(=O)O)NC(=O)C(C)(C)NC(=O)[C@@H](N)Cc1ccc(O)cc1)[C@@H](C)O)[C@@H](C)O)[C@@H](C)CC)[C@@H](C)CC)C(=O)N[C@@H](CCCCNC(=O)COCCOCCNC(=O)CC[C@H](NC(=O)CCCCCCCCCOc1ccc(C(=O)O)cc1)C(=O)O)C(=O)NCC(=O)NCC(=O)N1CCC[C@H]1C(=O)N[C@@H](CO)C(=O)N[C@@H](CO)C(=O)NCC(=O)N[C@@H](C)C(=O)N1CCC[C@H]1C(=O)N1CCC[C@H]1C(=O)N1CCC[C@H]1C(=O)N[C@@H](CO)C(N)=O [Example 361] | 98.8% | 98.2% | 0.58 nM | 88.8% | 0.0121 nM | 1.22 nM | > 9950 nM | > 9950 nM |  |  |  |  |  |  |  |  | 1.44 nM |
| CC[C@H](C)[C@H](NC(=O)[C@H](CC(C)C)NC(=O)[C@](C)(Cc1ccc(O)cc1)NC(=O)[C@H](CCCCNC(=O)COCCOCCNC(=O)COCCOCCNC(=O)[C@H]1CC[C@H](CNC(=O)CC[C@H](NC(=O)CCCCCCCCCOc2ccc(C(=O)O)cc2)C(=O)O)CC1)NC(=O)[C@@H](NC(=O)[C@H](Cc1ccccc1)NC(=O)[C@H](CCCN)NC(=O)C(C)(C)NC(=O)[C@H](CCC(N)=O)NC(=O)[C@H](C)NC(=O)[C@H](CCC(N)=O)NC(=O)[C@H](CCCN)NC(=O)[C@H](CC(=O)O)NC(=O)[C@H](CC(C)C)NC(=O)[C@](C)(CC(C)C)NC(=O)[C@@H](NC(=O)C(C)(C)NC(=O)[C@H](Cc1ccncc1)NC(=O)[C@H](CC(=O)O)NC(=O)[C@H](CO)NC(=O)[C@@H](NC(=O)[C@](C)(Cc1ccccc1F)NC(=O)[C@@H](NC(=O)CNC(=O)[C@H](CCC(=O)O)NC(=O)C(C)(C)NC(=O)[C@@H](N)Cc1ccc(O)cc1)[C@@H](C)O)[C@@H](C)O)[C@@H](C)CC)[C@@H](C)CC)C(=O)N[C@@H](CCCCNC(=O)COCCOCCNC(=O)COCCOCCNC(=O)[C@H]1CC[C@H](CNC(=O)CC[C@H](NC(=O)CCCCCCCCCOc2ccc(C(=O)O)cc2)C(=O)O)CC1)C(=O)NCC(=O)NCC(=O)N1CCC[C@H]1C(=O)N[C@@H](CO)C(=O)N[C@@H](CO)C(=O)NCC(=O)N[C@@H](C)C(=O)N1CCC[C@H]1C(=O)N1CCC[C@H]1C(=O)N1CCC[C@H]1C(=O)N[C@@H](CO)C(N)=O [Example 471] | 110% | 112% | 0.143 nM | 90.1% | 0.0107 nM | 0.197 nM | > 9950 nM | > 9950 nM |  |  |  |  |  |  |  |  |  |
